These results are taken from article PMC9154774, “4-(3-Alkyl/benzyl-guanidino)benzenesulfonamides as selective carbonic anhydrase VII inhibitors” (Journal of Enzyme Inhibition and Medicinal Chemistry, 2022).

Each structure is given as a SMILES string.

Assay in all cases: stopped-flow CO2 hydration assay, phenol red
Holding throughout (type): biochemical

Test [1] concerns the target T1, CA II (hCA II) (Homo sapiens, UniProt P00918).
T1 construct: gene CA2; recombinant, obtained in-house as reported earlier
An excerpt:
stopped-flow CO2 hydration assay, phenol red on CA II (hCA II)

For test [2], the target named is T2, CA I (hCA I) (Homo sapiens, UniProt P00915).
T2 construct: gene CA1; recombinant, obtained in-house as reported earlier
T2 sequence (P00915 2-261): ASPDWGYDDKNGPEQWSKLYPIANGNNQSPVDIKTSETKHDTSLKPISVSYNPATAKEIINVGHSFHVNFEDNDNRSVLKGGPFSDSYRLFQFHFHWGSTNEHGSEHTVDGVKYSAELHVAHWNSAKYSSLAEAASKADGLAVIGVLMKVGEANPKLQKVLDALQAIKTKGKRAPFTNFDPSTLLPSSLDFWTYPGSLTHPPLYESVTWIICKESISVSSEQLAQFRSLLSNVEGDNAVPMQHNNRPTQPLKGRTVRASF
An excerpt: stopped-flow CO2 hydration assay, phenol red on CA I (hCA I)

Test [3] deals with T3, CA VII (hCA VII) (Homo sapiens, UniProt P43166).
T3 construct: gene CA7; recombinant, obtained in-house as reported earlier
T3 sequence (P43166 whole entry): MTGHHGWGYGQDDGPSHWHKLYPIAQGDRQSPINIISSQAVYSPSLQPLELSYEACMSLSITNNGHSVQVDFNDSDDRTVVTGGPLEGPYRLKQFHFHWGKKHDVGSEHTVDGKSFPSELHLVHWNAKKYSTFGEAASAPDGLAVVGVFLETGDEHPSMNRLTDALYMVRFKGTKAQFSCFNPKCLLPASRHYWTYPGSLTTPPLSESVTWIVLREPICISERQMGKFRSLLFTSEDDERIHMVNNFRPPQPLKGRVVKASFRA
An excerpt: stopped-flow CO2 hydration assay, phenol red on CA VII (hCA VII)

As for `N=C(NCc1ccc(F)cc1)Nc1ccc(S(N)(=O)=O)cc1` [7c, 4-(3-(4-Fluorobenzyl)guanidino)benzenesulfonamide], the Ki amounted to 59.1 nM in test [1], 989 nM in test [2] and 15 nM in test [3].

For the compound `CCCCCCCCCCCCCCCCNC(=N)Nc1ccc(S(N)(=O)=O)cc1` [7n, 4-(3-hexadecylguanidino)benzenesulfonamide], the Ki in test [1] is 0.06 nM; in test [2], 2150 nM; in test [3], 0.08 nM.

With `N=C(Nc1ccc(S(N)(=O)=O)cc1)N1CCN(Cc2ccccc2)CC1` [7o, 4-Benzyl-N-(4-sulfamoylphenyl)piperazine-1-carboximidamide], the Ki stood at 0.1 nM in test [1], 3680 nM in test [2] and 0.06 nM in test [3].

For the compound `Cc1ccccc1CNC(=N)Nc1ccc(S(N)(=O)=O)cc1` [7g, 4-(3-(2-Methylbenzyl)guanidino)benzenesulfonamide], the Ki is 0.07 nM in test [1], 3160 nM in test [2] and 0.4 nM in test [3].

`N=C(NCCOc1ccccc1)Nc1ccc(S(N)(=O)=O)cc1` [7k, 4-(3-(2-Phenoxyethyl)guanidino)benzenesulfonamide]: the Ki in test [1] was found to be 6.9 nM; in test [2], 4180 nM; in test [3], 8.7 nM.

For the compound `CCCCCCCCNC(=N)Nc1ccc(S(N)(=O)=O)cc1` [7l, 4-(3-octylguanidino)benzenesulfonamide], the Ki in test [1] was determined as 0.9 nM; in test [2] it was 730 nM; in test [3], 2.2 nM.

For `CCCCCCCCCCCCNC(=N)Nc1ccc(S(N)(=O)=O)cc1` [7m, 4–(3-Dodecylguanidino)benzenesulfonamide], the Ki in test [1] was found to be 0.4 nM; in test [2], 930 nM; in test [3], 0.2 nM.

With `N=C(NCc1cccc(F)c1)Nc1ccc(S(N)(=O)=O)cc1` [7d, 4-(3-(3-Fluorobenzyl)guanidino)benzenesulfonamide], the Ki in test [1] was 1.6 nM; in test [2] it was 782 nM; in test [3], 60.7 nM.

As for `Cc1cccc(CNC(=N)Nc2ccc(S(N)(=O)=O)cc2)c1` [7f, 4-(3-(3-Methylbenzyl)guanidino)benzenesulfonamide], the values for the Ki in test [1], in test [2] and in test [3] were 0.3 nM, 2930 nM and 0.9 nM, respectively.

Regarding `COc1ccc(CNC(=N)Nc2ccc(S(N)(=O)=O)cc2)cc1` [7b, 4-(3-(4-Methoxybenzyl)guanidino)benzenesulfonamide], the Ki was determined as 17.7 nM in test [1], 699 nM in test [2] and 25.1 nM in test [3].

As for `Cc1cccc(CN(C)C(=N)Nc2ccc(S(N)(=O)=O)cc2)c1` [7i, 4-(3-Methyl-3-(3-methylbenzyl)guanidino)benzenesulfonamide], the results for the Ki in test [1], in test [2] and in test [3] were 0.08 nM, 1140 nM and 0.7 nM, respectively.

Take `CC(NC(=N)Nc1ccc(S(N)(=O)=O)cc1)c1ccccc1` (stereo not drawn) [7h, 4-(3-(1-Phenylethyl)guanidino)benzenesulfonamide]: the Ki stood at 9.6 nM in test [1], 1320 nM in test [2] and 1.1 nM in test [3].

In the case of `N=C(NCc1ccccc1)Nc1ccc(S(N)(=O)=O)cc1` [7a, 4-(3-Benzyl-guanidino)benzenesulfonamide], the Ki turned out to be 7.7 nM in test [1], 746 nM in test [2] and 10.1 nM in test [3].

As for `N=C(NCc1ccccc1F)Nc1ccc(S(N)(=O)=O)cc1` [7e, 4-(3-(2-Fluorobenzyl)guanidino)benzenesulfonamide], the Ki in test [1] is 3.2 nM; in test [2], 2990 nM; in test [3], 44.9 nM.

`N=C(Nc1ccc(S(N)(=O)=O)cc1)N(Cc1ccccc1)Cc1ccccc1` [7j, 4-(3,3-Dibenzyl-guanidino)benzenesulfonamide]: the values for the Ki in test [1], in test [2] and in test [3] were 0.6 nM, 5850 nM and 3.2 nM, respectively.
